d = 2'-deoxy (DNA); m = 2'-O-methyl; r = 2'-OH (RNA); f = 2'-fluoro

The results in this text go back to patent USRE48887E1, “RNA interference compositions and methods for malignant tumors” (Nitto Denko Corporation, priority 2014, dated 2022).

Series [1] relates to A549 orthotopic lung cancer tumors. Nature of the series: Orthotopic A549 lung cancer mouse model. As to conditions: 2 mg/kg.
Method: The anti-tumor efficacy of the siRNA formulation against human lung cancer A549 was evaluated by comparing the final primary tumor weights measured at necropsy for the treatment group and the vehicle control group.
For this study, male NCr nu/nu mice, 5-6 weeks old, were used. The experimental animals were maintained in a HEPA filtered environment during the experimental period. The siRNA formulations were stored at 4° C. before use, and warmed to room temperature 10 minutes prior to injection in mouse.
For this A549 human lung cancer orthotopic model, on the day of surgical orthotopic implantation (SOI), the stock tumors were harvested from the subcutaneous site of animals bearing A549 tumor xenograft and placed in RPMI1640 medium. Necrotic tissues were removed and viable tissues were cut into 1.5-2 mm^3 pieces. The animals were anesthetized with isoflurane inhalation and the surgical area was sterilized with iodine and alcohol. A transverse incision approximately 1.5 cm long was made in the left chest wall of the mouse using a pair of surgical scissors. An intercostal incision was made between the third and the fourth rib and the left lung was exposed. One A549 tumor fragment was transplanted to the surface of the lung with an 8-0 surgical suture (nylon). The chest wall was closed with a 6-0 surgical suture (silk). The lung was re-inflated by intrathoracic puncture using a 3 cc syringe with a 25 G×1½ needle to draw out the remaining air in the chest cavity. The chest wall was closed with a 6-0 surgical silk suture.
Three days after tumor implantation, the model tumor-bearing mice were randomly divided into groups of ten mice per group. For the group of interest, treatment of the ten mice was initiated three days after tumor implantation.
For the group of interest, the formulation was (Ionizable lipid: cholesterol:DOPE:DOPC:DPPE-PEG-2K:DSPE-PEG-2K), a liposomal composition. The liposomes encapsulated the GST-π siRNA.
For the study endpoint, the experimental mice were sacrificed forty-two days after treatment initiation. […]
The next series deals with GST-π mRNA. Nature of the series: Knockdown of GST-π mRNA in A549 xenograft tumors in vivo. The arrangement: species or system mouse.
Series [2] concerns A549 cancer xenograft tumors. The experiment in a line: A549 cancer xenograft model, tumor inhibition efficacy. It is filed as in vivo, mouse. As to conditions: 0.75 mg/kg IV, two injections (day 1 and 15). As to the method:
For the cancer xenograft model, an A549 cell line was obtained from ATCC. The cells were maintained in culture medium supplemented with 10% Fetal Bovine Serum and 100 U/ml penicillin and 100 μg/ml streptomycin. Cells were split 48 hrs before inoculation so that cells were in log phase growth when harvested. Cells were lightly trypsinized with trypsin-EDTA and harvested from tissue culture. The number of viable cells was counted and determined in a hemocytometer in the presence of trypan blue (only viable cells are counted). The cells were resuspended to a concentration of 5×10^7/ml in media without serum. […]
For tumor volume measurements and randomization, tumor size was measured to the nearest 0.1 mm. Tumor volumes were calculated using the formula: […]. […] Tumor volumes were monitored three times for week 1, twice for the rest of weeks, including the day of study termination. […]
For body weight, mice were weighed to the nearest 0.1 g. Body weights were monitored and recorded daily within 7 days post dosing for first dose. Body weights were monitored and recorded twice for weeks, for the rest of weeks, including the day of study termination.
For tumors collection, on 28 days post first dosing, tumor volume was measured, and tumor was dissected for weight measurement, and stored for PD biomarker study. Tumor weight was recorded. […]

The test system of a further series is PUMA. The experiment in a line: PUMA biomarker for apoptosis of cancer cells in vitro (qPCR). Type of series: cell-based. As to conditions: from 2-4 days after transfection; siRNA 10 nM. On the procedure:
The protocol for the PUMA biomarker was as follows. One day before transfection, cells were plated in a 96-well plate at 2×10^3 cells per well with 100 μl of DMEM (HyClone Cat. # SH30243.01) containing 10% FBS and cultured in a 37° C. incubator containing a humidified atmosphere of 5% CO2 in air. Next day, before transfection the medium was replaced with 90 μl of Opti-MEM I Reduced Serum Medium (Life Technologies Cat. #31985-070) containing 2% FBS. Then, 0.2 μl of Lipofectamine RNAiMAX (Life Technologies Cat. #13778-100) were mixed with 4.8 μl of Opti-MEM I for 5 minutes at room temperature. 1 μl of the siRNAs (stock conc. 1 μM) was mixed with 4 μl of Opti-MEM I and combined with the RNAiMAX solution and then mixed gently. The mixture was incubated for 10 minutes at room temperature to allow the RNA-RNAiMAX complexes to form. 10 μl of RNA-RNAiMAX complexes were added per well, to final concentration of the siRNA 10 nM. The cells were incubated for 2 hours and medium changed to fresh Opti-MEM I Reduced Serum Medium containing 2% FBS. […] PUMA (BBC3, Cat# Hs00248075, Life Technologies) mRNA levels were measured by qPCR with TAQMAN.
The protocol for the PUMA biomarker was as follows. […] PUMA (BBC3, Cat#Hs00248075, Life Technologies) mRNA levels were measured by qPCR with TAQMAN.

As for “SEQ ID NOs:61 and 126: GST-π siRNA; sense GAAGCCUUUUGAGACCCUAtt; antisense UAGGGUCUCAAAAGGCUUCag (sense GAAGCCUUUUGAGACCCUATT; antisense UAGGGUCUCAAAAGGCUUCAG; chemistry not given here)”, the “final tumor average weights reduced as compared to control” value in series [1] (after 43 days, liposomal formulation, athymic nude mice) is reported as 2.8 fold. In addition, in series [1] (entire experimental period), the “mean body weight of the mice” value is given as “maintained within the normal range” and the “other symptoms of toxicity” value is reported as “not observed”. Moreover, in the series with GST-π mRNA (4 mg/kg, single injection, 24 hours after injection), the “reduction of GST-π mRNA” value was “about 40%”. The “GST-π mRNA expression” value in the series with GST-π mRNA (4 days after injection in a lipid formulation) is reported as “significant reduction”.
Regarding “SEQ ID NOs:156 and 182: GST-π siRNA, Table 2; sense GAAGCCUUUUGAGACCCUAUU; antisense fUAGgGuCuCAAAAGGCUUCUU (antisense UAGGGUCUCAAAAGGCUUCUU; sense: sugars from the 5' end mmmrrrrmrmrrrrrrrmmmm, backbone not given here; antisense: sugars from the 5' end frrdrdrdmrmmrrrrmmrmm, backbone and T or U not given here)”, the “tumor volume reduced as compared to control” value in series [2] (after 36 days, liposomal formulation) turned out to be 2 fold. Besides, the tumor weight reduced entry in series [2] (endpoint day) is reported as “more than 2 fold”. Besides, in the series with PUMA, the “expression of PUMA” value was “greatly increased”.
